Measurements published in US7777060B2, “Platinum analogs with bis-nitrile-containing ligands” (BioNumerik Pharmaceuticals, Inc., priority 2007, dated 2010).

Tests used:
Type in all cases: cell-based
[1] = test system: A2780/CP3; experiment: Cytotoxicity IC50 in A2780/CP3 cell line, 1 hour drug exposure; conditions: for IC50: 1 hour of exposure to the drug, average of repeat experiments, dash = IC50 >100 μM; for CP3 Rfact: resistance factor = IC50 in A2780/CP3 ÷ IC50 in A2780/WT
Procedure: (§1) All experiments are with 1 hour of exposure to the drug, IC50 in μM. The platinum compounds have been tested by the resistance factor in CP3 cell line (CP3 Rfact) and C25 cell line (C25 Rfact). The terms (CP3 Rfact) and (C25 Rfact) are determined utilizing the following equations, wherein WT stands for wild-type. CP3 Rfact=IC50 in A2780/CP3÷IC50 in A2780/WT C25 Rfact=IC50 in A2780/C25÷IC50 in A2780/WT
(§2) In addition, Compounds with “ - - - ” in the IC50 column indicate the IC50s are >100 μM.

[2] = test system: A2780/WT; experiment: Cytotoxicity IC50 in A2780/WT cell line, 1 hour drug exposure; conditions: 1 hour of exposure to the drug; average of repeat experiments
Procedure: as §1, §2

[3] = test system: A2780/C25; experiment: Cytotoxicity IC50 in A2780/C25 cell line, 1 hour drug exposure; conditions: for IC50: 1 hour of exposure to the drug, average of repeat experiments; for C25 Rfact: resistance factor = IC50 in A2780/C25 ÷ IC50 in A2780/WT
Procedure: as §1, §2

Row | Compound | IC50 [1] | CP3 Rfact [1] | IC50 [2] | IC50 [3] | C25 Rfact [3]
1 | N#CCc1ccc2c(c1)OCO2.N#CCc1ccc2c(c1)OCO2.[Cl][Pt@SP1][Cl] [BNP3016, Cis-bis(3,4-(methylenedioxy)phenylacetonitrile)dichloroplatinum (II)] | 75.6 µM | 1.21 | 62.4 µM | 66.5 µM | 1.07
2 | COC(CCC#N)c1ccccc1.COC(CCC#N)c1ccccc1.[Cl][Pt@SP1][Cl] (stereo not drawn) [BNP3017, Cis-bis(4-methoxy-4-phenylbutyronitrile)dichloroplatinum (II)] | 18.8 µM | 1.34 | 14 µM | 18.1 µM | 1.29
3 | N#CCCC1CCCCC1=O.N#CCCC1CCCCC1=O.[Cl][Pt@SP1][Cl] (stereo not drawn) [BNP3020, Cis-bis[3-(2-oxo-cyclohexyl)-propionitrile]dichloroplatinum (II)] | 84.3 µM | 1.63 | 51.6 µM | 61.6 µM | 1.19
4 | [Cl][Pt-2]([Cl])([N+]#CC1CCC1)[N+]#CC1CCC1 [BNP3021, Cis-bis-(cyclobutanecarbonitrile)dichloroplatinum (II)] | 41.3 µM | 2.97 | 13.9 µM | 29.2 µM | 2.10
5 | CCCCOCCC#N.CCCCOCCC#N.[Cl][Pt@SP1][Cl] [BNP3022, Cis-bis(3-butoxypropanenitrile)dichloroplatinum (II)] | > 100 µM | – | 73.8 µM | 65 µM | 0.88
6 | Cc1ccccc1CC#[N+][Pt-2]([Cl])([Cl])[N+]#CCc1ccccc1C [BNP3024, Cis-bis-(o-tolylacetonitrile)dichloroplatinum (II)] | 18.6 µM | 1.34 | 13.9 µM | 18.7 µM | 1.34
7 | Cc1cccc(CC#[N+][Pt-2]([Cl])([Cl])[N+]#CCc2cccc(C)c2)c1 [BNP3026, Cis-bis(m-tolylacetonitrile)dichloroplatinum (II)] | 28.5 µM | 1.32 | 21.6 µM | 24 µM | 1.11
8 | N#CCCCc1ccccc1.N#CCCCc1ccccc1.[Cl][Pt@SP1][Cl] [BNP3029/c, Cis-bis-(4-phenylbutyronitrile)dichloroplatinum (II)] | 6.88 µM | 1.56 | 4.4 µM | 5.45 µM | 1.24
9 | N#CCCCc1ccccc1.N#CCCCc1ccccc1.[Cl][Pt@SP1][Cl] [BNP3029/t, Trans-bis-(4-phenylbutyronitrile)dichloroplatinum (II)] | 19.2 µM | 1.19 | 16.2 µM | 17.7 µM | 1.09
10 | N#CC1Cc2ccccc21.N#CC1Cc2ccccc21.[Cl][Pt@SP1][Cl] (stereo not drawn) [BNP3030, Cis-bis(bicyclo[4.2.0]octa-1(6),2,4-triene-7-carbonitrile)dichloroplatinum (II)] | 61.9 µM | 1.20 | 51.4 µM | 58.9 µM | 1.15
11 | N#CCc1ccccc1C(F)(F)F.N#CCc1ccccc1C(F)(F)F.[Cl][Pt@SP1][Cl] [BNP3037/t, Trans-bis-[2-(trifluoromethyl)-phenylacetonitrile]dichloroplatinum] | > 100 µM | – | 87.1 µM | 68.7 µM | 0.79
12 | Cis-bis(cyclopropaneacetonitrile)dichloroplatinum (II) [BNP3014/c] | 55.7 µM | 2.39 | 23.3 µM | 45.4 µM | 1.94
13 | Cis-bis-[4-(trifluoromethoxy)-phenylacetonitrile]dichloroplatinum (II) [BNP3031] | 35.9 µM | 1.95 | 18.4 µM | 23.2 µM | 1.26
14 | Trans-bis(2,6-difluoro-3-methylphenylacetonitrile)dichloroplatinum (II) [BNP3036/t] | 54.1 µM | 2.28 | 23.7 µM | 35.2 µM | 1.49
15 | Trans-bis(cyclopropaneacetonitrile)dichloroplatinum (II) [BNP3014/t] | > 100 µM | – | 68.1 µM | 92 µM | 1.35
